Results from article PMC11451537, “P2X7 receptors exhibit at least three modes of allosteric antagonism” (Science Advances, 2024).
Where two headings read alike, the source gives them in different places.

How the values were obtained:
[1] = molecular target: T1, rP2X7 (Rattus norvegicus, UniProt Q64663); experiment: Bio-layer interferometry (BLI), biotinylated rP2X7 on streptavidin biosensors, 2:1 Langmuir fit; format: binding; details: for kon: pH 7.4, 2:1 Langmuir model, 600-s association
T1 sequence (Q64663 1-595): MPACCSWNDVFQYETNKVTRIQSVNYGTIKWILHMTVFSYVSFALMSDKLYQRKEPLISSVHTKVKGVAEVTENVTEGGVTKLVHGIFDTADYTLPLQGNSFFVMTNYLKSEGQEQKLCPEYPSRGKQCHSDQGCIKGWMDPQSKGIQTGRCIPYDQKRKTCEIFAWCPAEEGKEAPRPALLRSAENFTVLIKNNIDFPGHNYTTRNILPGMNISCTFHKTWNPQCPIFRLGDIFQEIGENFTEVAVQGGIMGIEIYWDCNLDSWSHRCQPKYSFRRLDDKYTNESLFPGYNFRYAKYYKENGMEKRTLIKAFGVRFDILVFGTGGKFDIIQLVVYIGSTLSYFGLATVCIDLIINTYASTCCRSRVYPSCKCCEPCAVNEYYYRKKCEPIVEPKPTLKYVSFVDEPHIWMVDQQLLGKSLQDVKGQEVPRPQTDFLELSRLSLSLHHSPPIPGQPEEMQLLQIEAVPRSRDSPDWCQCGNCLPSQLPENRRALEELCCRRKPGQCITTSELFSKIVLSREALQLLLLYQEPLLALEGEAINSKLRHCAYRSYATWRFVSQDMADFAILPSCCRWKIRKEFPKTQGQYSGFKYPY
Description: Using a HiTrap desalting column (Cytiva), 1 ml of diluted purified rP2X7 was desalted into PBS buffer (pH 7.4). Protein-containing fractions were combined and concentrated before adjusting the pH to 8.0 with NaHCO3. NHS-PEG12-Biotin (Thermo Fisher Scientific) was added and incubated at 23°C for 60 min while shaking. PBS was used to dilute the biotinylated sample before four cycles of dilution and concentration to ensure the removal of free NHS-PEG12-Biotin via a 100-kDa concentrator (Millipore Sigma). After the final cycle, the absorbance at 280 nm of the concentrated sample was taken to quantify the amount of biotinylated rP2X7.
A ForteBio Octet RED384 instrument with ForteBio Data Acquisition software 11.0 was used to carry out BLI experiments. The assays were performed at 30°C using 384-well tilted-bottom plates (Sartorius) while orbital shaking at 1000 RPM. Running buffer consisting of filtered (0.22 μm) PBS (pH 7.4) with 0.5 mM DDM (Anatrace). Streptavidin (SA) biosensor tips (Sartorius) were pre-equilibrated in running buffer for 20 min and loaded with 50 μg ml^−1 of biotinylated rP2X7 ligand or biocytin (Sigma-Aldrich) control for 1800s. Blocking of the loaded SA sensors using 100 μg ml^−1 of biocytin was then initiated for 150 s before washing with a running buffer for 60 s. A baseline of loaded sensors was taken in the running buffer for 120 s before dipping them into wells containing ligand dilutions (0.37 to 10 μM for methyl blue) for 600 s, and then returning the sensors to the running buffer for a 600-s disassociation step. Rate constants for association and disassociation were determined using ForteBio Data Analysis HT 11.0 evaluation software. The raw data were double reference subtracted for maximal signal between the large ligand and small analyte. Biocytin controls were the first subtraction across analyte concentrations, and the zero-analyte concentration was the second. The association rate constant (ka) and the dissociation rate constant (kd) were calculated for each interaction pair using an average of three independent assays containing at least four different concentrations that were globally fit to a 2:1 Langmuir binding model. Equilibrium dissociation constants (KD) were calculated as the ratio of kd to ka. The KD1, KD2, ka1, ka2, kd1, and kd2 values are reported as the average ± the SD of three replicate datasets for each analyte, with each dataset using at least four independent traces. The analyzed data were exported and plotted in GraphPad Prism 9.0.

[2] = molecular target: T2, hP2X1 (Homo sapiens, UniProt P51575); experiment: TEVC inhibition dose-response (IC50), hP2X1 in Xenopus laevis oocytes; format: cell-based; details: 10 μM ATP, mean ± SD, triplicate
T2 construct: The hP2X1-WT, hP2X2-WT, hP2X3-WT, hP2X4-WT, and hP2X7-WT constructs used for electrophysiology are similarly unmodified full-length, wild-type receptor constructs; expressed in transfected cells; host or cells: Xenopus laevis oocytes injected with mRNA made from pcDNA3.1x
T2 sequence (P51575 1-399): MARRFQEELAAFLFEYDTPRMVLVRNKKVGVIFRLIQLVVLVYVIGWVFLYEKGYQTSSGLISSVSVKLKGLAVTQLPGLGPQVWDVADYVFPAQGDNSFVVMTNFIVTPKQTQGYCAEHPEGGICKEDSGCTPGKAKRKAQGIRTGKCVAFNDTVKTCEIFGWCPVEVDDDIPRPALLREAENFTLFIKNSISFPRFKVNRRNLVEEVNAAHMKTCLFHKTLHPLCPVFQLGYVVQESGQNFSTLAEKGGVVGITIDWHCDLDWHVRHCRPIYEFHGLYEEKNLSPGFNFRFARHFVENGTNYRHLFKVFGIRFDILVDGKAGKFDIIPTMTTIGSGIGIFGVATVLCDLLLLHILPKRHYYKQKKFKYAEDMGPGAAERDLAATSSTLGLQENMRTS
Excerpt: To evaluate the inhibitory response of an antagonist for a dilution series, an initial excitatory signal was evoked at a subtype-specific concentration of ATP. Next, the antagonist was applied at a test concentration for 60 s and then coapplied at the same test concentration of the antagonist with the identical subtype-specific concentration of ATP. The antagonized signal was then normalized against the preceding excitatory signal evoked by ATP for each individual oocyte tested. The pre- and post-antagonist signals were evoked by 10 μM ATP for hP2X1, 10 μM ATP for hP2X2, 1 μM ATP for hP2X3, 50 μM ATP for hP2X4, and 100 μM ATP for P2X7. For the K297V mutation in rP2X7, pre- and post-antagonist signals were evoked by 300 μM ATP. Each dataset was then fit to a nonlinear regression named “[inhibitor] vs. response – Variable slope (four parameters)” in GraphPad Prism 9 to produce a sigmoidal curve and afford an IC50 value. Each singular condition was used to generate an average which is reported plus or minus its SD between three discrete trials.

[3] = 2:1 Langmuir model, 600-s dissociation

O=S(=O)(O)c1ccc(N=C2C=CC(=C(c3ccc(Nc4ccc(S(=O)(=O)O)cc4)cc3)c3ccc(Nc4ccc(S(=O)(=O)O)cc4)cc3)C=C2)cc1 [methyl blue]
share of signal of the high-affinity component (KD1) ([1]; 2:1 Langmuir model): 67 ± 8%
share of signal of the low-affinity component (KD2) ([1]; 2:1 Langmuir model): 33 ± 8%
Kd ([1]; 2:1 Langmuir model, 30°C, PBS pH 7.4 with 0.5 mM DDM, ratio of kd to ka, read-out: KD1 (high-affinity binding component)): 260 ± 130 nM
rate constant for dissociation kd1 [1, 3]: 1.1 ± 0.5 × 10^−4 s^−1
rate constant for dissociation kd2 [1, 3]: 1.3 ± 0.1 × 10^−2 s^−1
kon ([1]; read-out: rate constant for association ka1): 450 ± 2000 M⁻¹ s⁻¹
kon ([1]; read-out: rate constant for association ka2): 9300 ± 2.3e+06 M⁻¹ s⁻¹
Kd ([1]; read-out: KD2 (low-affinity binding component), 2:1 Langmuir model, 30°C, PBS pH 7.4 with 0.5 mM DDM, ratio of kd to ka): 1500 ± 200 nM
IC50 [2]: 400 ± 100 nM
